Source: US12280072B2, “Oligosaccharide compound for inhibiting intrinsic coagulation factor X-enzyme complex, and preparation method therefor and uses thereof” (Jiuzhitang Co., Ltd., priority 2017, dated 2025)
Like-named read-outs stand apart in the source and are kept apart here.

Columns and labels:
Assay type in all cases: biochemical
FIIa (Homo sapiens) = target: T1, FIIa (Homo sapiens); test: AT-dependent IIa inhibitory activity assay
T1 construct: antithrombin (i.e., active coagulation factor IIa); purchased
T1 sequence (P01008 33-464): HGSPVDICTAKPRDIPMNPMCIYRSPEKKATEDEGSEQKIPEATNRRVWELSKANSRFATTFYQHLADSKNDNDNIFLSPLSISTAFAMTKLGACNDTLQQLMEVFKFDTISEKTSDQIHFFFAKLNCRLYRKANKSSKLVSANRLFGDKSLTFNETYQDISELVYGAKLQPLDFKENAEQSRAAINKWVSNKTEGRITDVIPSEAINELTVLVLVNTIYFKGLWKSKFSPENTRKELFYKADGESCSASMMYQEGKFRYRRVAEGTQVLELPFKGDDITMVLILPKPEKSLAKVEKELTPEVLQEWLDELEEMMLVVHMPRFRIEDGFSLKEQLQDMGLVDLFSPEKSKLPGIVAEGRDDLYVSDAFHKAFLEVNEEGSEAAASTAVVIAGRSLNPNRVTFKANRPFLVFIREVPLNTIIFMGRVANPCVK
Experimental: AT-dependent IIa inhibitory activity assay: Heparin Anti-FIIa kit was used for detection. To a 96-well plate, 30 μL of sample, control solution or Tris-HCl buffer (negative control) was added, and then 30 μL of 1 IU/mL AT solution was added, mixed well by shaking the plate and incubated at 37° C. for 2 min; 30 μL of 24 IU/mL FIIa solution was added, mixed well by shaking the plate and incubated for 2 min at 37° C., and then 30 μL of pre-warmed 1.25 mM FIIa specific chromogenic substrate CS-01 (38) was added, mixed well by shaking the plate. The OD405 was detected by a microplate reader and the IC50 value of FIIa inhibition of each sample was calculated.
(§1) Data processing: The average value of OD405 detected by the duplicated well was used as the detection value of the test sample and the reference of each concentration, and the slope of the linear fit between the detected value to the time value (the change rate of the absorbance value OD405/min) indicated enzymatic activity of coagulation factor. Taking the clotting factor activity of the negative control well as 100%, coagulation factor activity (percentage) in the presence of the test sample was calculated. The coagulation factor activity in the presence of the test sample was plotted against the concentration of the test sample, and fitted according to the following formula, to calculate the IC50 value: B=(IC50)^n/{(IC50)^n+[I]^n}
(§2) in the formula, B is the coagulation factor activity (percentage) in the presence of the test sample, [I] is the concentration of the test sample, IC50 is the half inhibitory concentration (concentration of the test sample required to inhibit 50% of the activity), and n is the Hill coefficient. • (4) Effect on surface activation and platelet activity: […]

human-controlled plasma [1] = test: Anticoagulant activity assay: PT clotting time
Experimental: (§3) 8.2 Methods • (1) Preparation of sample solution: Oligosaccharide compounds A1˜A8, B1˜B11 and oligosaccharide mixtures C1, D1, D2 were all dissolved in Tris-HCl buffer and diluted to the desired series of solubility. • (2) Anticoagulant activity assay: 90 μL of human-controlled plasma was added to the sample or 10 μL of the control solution, and then the clotting time (APTT and PT) was detected by the MC-4000 coagulometer according to the method described in the APTT and PT kit instructions. • (3) Coagulation factor inhibitory activity analysis: […]

intrinsic factor Xase = target: T2, intrinsic factor Xase (Homo sapiens, UniProt P00740); test: Xase inhibitory activity assay
T2 construct: 60 nM FIXa; purchased
T2 sequence (P00740 47-191 limits assumed): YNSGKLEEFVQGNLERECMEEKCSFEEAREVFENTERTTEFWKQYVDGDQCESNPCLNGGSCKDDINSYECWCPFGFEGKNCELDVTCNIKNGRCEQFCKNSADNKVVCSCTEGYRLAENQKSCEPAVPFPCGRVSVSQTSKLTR
T2 sequence (P00740 227-461 limits assumed): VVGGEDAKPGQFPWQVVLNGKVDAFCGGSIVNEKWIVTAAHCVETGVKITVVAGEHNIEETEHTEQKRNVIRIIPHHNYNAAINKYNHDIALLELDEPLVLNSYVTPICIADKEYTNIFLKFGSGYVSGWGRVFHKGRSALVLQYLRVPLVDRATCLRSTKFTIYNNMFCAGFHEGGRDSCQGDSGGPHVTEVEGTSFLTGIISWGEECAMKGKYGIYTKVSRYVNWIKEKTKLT
Experimental: Xase inhibitory activity assay: Detection was performed according to kit instructions and literature methods by combining the Factor VIII and […]. Specifically, to each well of a 96-well plate, 30 μL of test solution, control solution, or Tris-HCl buffer (negative control) was added, and 30 μl of FVIII (2 IU/ml), 30 μl of R2 (60 nM FIXa, containing FIIa, PC/PS, Ca^2+) were sequentially added, mixed by shaking the plate, incubated at 37° C. for 2 min; and then 30 μL of R1 (50 nM FX, containing direct thrombin inhibitor) was added, mixed by shaking the plate, incubated at 37° C. for 1 min; and then 30 μL of R3 (FXa chromogenic substrate SXa-11, about 8.4 mM) was added. The absorbance at 405 nm (OD405) was detected with a microplate reader, continuously measuring for 7.5 min at a interval of 30 s. The Xase activity and IC50 value of Xase inhibition of the test sample were calculated based on the OD405 change value.
as §1, §2

plasma = test: TT (thrombin time) clotting time
human-controlled plasma [2] = test: Anticoagulant activity assay: APTT clotting time
Experimental: as §3

FXa (Homo sapiens) = target: T3, FXa (Homo sapiens); test: AT-dependent Xa inhibitory activity assay
T3 construct: 8 μg/mL FXa solution; purchased
T3 sequence (P01008 33-464): as the sequence (P01008 33-464) above
Experimental: AT-dependent Xa inhibitory activity assay: Heparin […] kit was used for detection. To a 96-well plate, 30 μL of sample, control solution or Tris-HCl buffer (negative control) was added, then 30 μL of 1 IU/mL AT solution was added, mixed well and incubated at 37° C. for 1 min; and than 30 μL of 8 μg/mL FXa solution was added, mixed well and incubated at 37° C. for 1 min, then 30 μL of pre-warmed 1.25 mM Xa chromogenic substrate SXa-11 was added. OD405 was detected by a microplate reader.
as §1, §2

[3] = in presence of AT; read-out: Drug concentration required to inhibit 50% of coagulation factor activity (IC50, ng/mL) Ha (AT)
[4] = read-out: Drug concentration required to inhibit 50% of coagulation factor activity (IC50, ng/mL) Xase (converted)
[5] = in presence of AT; read-out: Drug concentration required to inhibit 50% of coagulation factor activity (IC50, ng/mL) Xa (AT)

CC(=O)NC1C(OC2C(C(=O)O)OC(OC3C(NC(C)=O)C(OC4C(C(=O)O)OC(OC5C(NC(C)=O)C(OC6C(C(=O)O)OC(OC7C(NC(C)=O)C(OC8C(C(=O)O)OC(OC9C(NC(C)=O)C(OC(C(O)C(=O)O)C(OC%10OC(C)C(OS(=O)(=O)O)C(OS(=O)(=O)O)C%10O)C(O)CO)OC(COS(=O)(=O)O)C9OS(=O)(=O)O)C(O)C8OC8OC(C)C(OS(=O)(=O)O)C(OS(=O)(=O)O)C8O)OC(COS(=O)(=O)O)C7OS(=O)(=O)O)C(O)C6OC6OC(C)C(OS(=O)(=O)O)C(OS(=O)(=O)O)C6O)OC(COS(=O)(=O)O)C5OS(=O)(=O)O)C(O)C4OC4OC(C)C(OS(=O)(=O)O)C(OS(=O)(=O)O)C4O)OC(COS(=O)(=O)O)C3OS(=O)(=O)O)C(O)C2OC2OC(C)C(OS(=O)(=O)O)C(OS(=O)(=O)O)C2O)OC(COS(=O)(=O)O)C(OS(=O)(=O)O)C1OC1OC(C(=O)O)=CC(OC2OC(C)C(OS(=O)(=O)O)C(OS(=O)(=O)O)C2O)C1O [Compound B5, L-Fuc3S4S-(α1,3)-L-ΔUA-(α1,3)-{D-GalNAc4S6S-(β1,4)-[L-Fuc3S4S-(α1,3)]-D-GlcA-(β1,3)}˜-D-GalNAc4S6S-(β1,4)-[L-Fuc3S4S-(α1,3)]-D-GlcA-ol]
IC50 (FIIa (Homo sapiens); read-out: Drug concentration required to inhibit 50% of coagulation factor activity (IC50, ng/mL) Ha (AT); in presence of AT): > 1060 nM | Drug concentration required for multiplication of coagulation time (μg/mL) PT (human-controlled plasma [1]): # (>128 μg/mL) | IC50 (intrinsic factor Xase; read-out: Drug concentration required to inhibit 50% of coagulation factor activity (IC50, ng/mL) Xase): 4.2 nM | Drug concentration required for multiplication of coagulation time (μg/mL) TT (plasma): # (>128 μg/mL) | Drug concentration required for multiplication of coagulation time (μg/mL) APTT (human-controlled plasma [2]): 4.0 µg/mL | IC50 (FXa (Homo sapiens); read-out: Drug concentration required to inhibit 50% of coagulation factor activity (IC50, ng/mL) Xa (AT); in presence of AT): > 1060 nM

CC(=O)NC(CO)C(OC1OC(C(=O)O)C(OC2OC(COS(=O)(=O)O)C(OS(=O)(=O)O)C(OC3OC(C(=O)O)C(OC4OC(COS(=O)(=O)O)C(OS(=O)(=O)O)C(OC5OC(C(=O)O)C(OC6OC(COS(=O)(=O)O)C(OS(=O)(=O)O)C(OC7OC(C(=O)O)=CC(OC8OC(C)C(OS(=O)(=O)O)C(O)C8OS(=O)(=O)O)C7O)C6NC(C)=O)C(OC6OC(C)C(OS(=O)(=O)O)C(O)C6OS(=O)(=O)O)C5O)C4NC(C)=O)C(OC4OC(C)C(OS(=O)(=O)O)C(O)C4OS(=O)(=O)O)C3O)C2NC(C)=O)C(OC2OC(C)C(OS(=O)(=O)O)C(O)C2OS(=O)(=O)O)C1O)C(OS(=O)(=O)O)C(O)COS(=O)(=O)O [Compound A3, L-Fuc2S4S-(α1,3)-ΔUA-(α1,3)-{D-GaNAc4S6S-(β1,4)-[L-Fuc2S4S-(α1,3)]-D-GlcA-(β1,3)}n+1-D-GalNAc4S6S-ol]
IC50 (FIIa (Homo sapiens); [3]): > 1480 nM | Drug concentration required for multiplication of coagulation time (μg/mL) PT (human-controlled plasma [1]): # (>128 μg/mL) | IC50 (intrinsic factor Xase; [4]): 11.8 nM | Drug concentration required for multiplication of coagulation time (μg/mL) TT (plasma): # (>128 μg/mL) | Drug concentration required for multiplication of coagulation time (μg/mL) APTT (human-controlled plasma [2]): 6.8 µg/mL | IC50 (FXa (Homo sapiens); [5]): > 1480 nM

CC(=O)NC1C(OC2C(C(=O)O)OC(OC3C(NC(C)=O)C(OC4C(C(=O)O)OC(OC5C(NC(C)=O)C(OC(C(O)C(=O)O)C(OC6OC(C)C(OS(=O)(=O)O)C(OS(=O)(=O)O)C6O)C(O)CO)OC(COS(=O)(=O)O)C5OS(=O)(=O)O)C(O)C4OC4OC(C)C(OS(=O)(=O)O)C(OS(=O)(=O)O)C4O)OC(COS(=O)(=O)O)C3OS(=O)(=O)O)C(O)C2OC2OC(C)C(OS(=O)(=O)O)C(OS(=O)(=O)O)C2O)OC(COS(=O)(=O)O)C(OS(=O)(=O)O)C1OC1OC(C(=O)O)=CC(OC2OC(C)C(OS(=O)(=O)O)C(OS(=O)(=O)O)C2O)C1O [Compound B3, L-Fuc3S4S-(α1,3)-L-ΔUA-(α1,3)-{D-GalNAc4S6S-(β1,4)-[L-Fuc3S4S-(α1,3)]-D-GlcA-(β1,3)}˜-D-GalNAc4S6S-(β1,4)-[L-Fuc3S4S-(α1,3)]-D-GlcA-ol]
IC50 (FIIa (Homo sapiens); [3]): > 1650 nM | Drug concentration required for multiplication of coagulation time (μg/mL) PT (human-controlled plasma [1]): # (>128 μg/mL) | IC50 (intrinsic factor Xase; [4]): 10.3 nM | Drug concentration required for multiplication of coagulation time (μg/mL) TT (plasma): # (>128 μg/mL) | Drug concentration required for multiplication of coagulation time (μg/mL) APTT (human-controlled plasma [2]): 6.1 µg/mL | IC50 (FXa (Homo sapiens); [5]): > 1650 nM

CC(=O)NC1C(OC2C(C(=O)O)OC(OC3C(NC(C)=O)C(OC4C(C(=O)O)OC(OC5C(NC(C)=O)C(OC6C(C(=O)O)OC(O)C(O)C6OC6OC(C)C(OS(=O)(=O)O)C(OS(=O)(=O)O)C6O)OC(COS(=O)(=O)O)C5OS(=O)(=O)O)C(O)C4OC4OC(C)C(OS(=O)(=O)O)C(OS(=O)(=O)O)C4O)OC(COS(=O)(=O)O)C3OS(=O)(=O)O)C(O)C2OC2OC(C)C(OS(=O)(=O)O)C(OS(=O)(=O)O)C2O)OC(COS(=O)(=O)O)C(OS(=O)(=O)O)C1OC1OC(C(=O)O)=CC(OC2OC(C)C(OS(=O)(=O)O)C(OS(=O)(=O)O)C2O)C1O [Compound B8, L-Fuc3S4S-(α1,3)-L-ΔUA-(α1,3)-{D-GaNAc4S6S-(β1,4)-[L-Fuc3S4S-(α1,3)]-D-GlcA-(β1,4)}˜-D-GalNAc4S6S-(β1,4)-[L-Fuc3S4S-(α1,3)]-D-GlcA]
IC50 (FIIa (Homo sapiens); [3]): > 1660 nM | Drug concentration required for multiplication of coagulation time (μg/mL) PT (human-controlled plasma [1]): # (>128 μg/mL) | IC50 (intrinsic factor Xase; [4]): 9.8 nM | Drug concentration required for multiplication of coagulation time (μg/mL) TT (plasma): # (>128 μg/mL) | Drug concentration required for multiplication of coagulation time (μg/mL) APTT (human-controlled plasma [2]): 5.8 µg/mL | IC50 (FXa (Homo sapiens); [5]): > 1660 nM

CCOC(=O)c1ccc(NCC(O)C(OC2OC(C)C(OS(=O)(=O)O)C(O)C2OS(=O)(=O)O)C(OC2OC(COS(=O)(=O)O)C(OS(=O)(=O)O)C(OC3OC(C(=O)O)C(OC4OC(COS(=O)(=O)O)C(OS(=O)(=O)O)C(OC5OC(C(=O)O)C(OC6OC(COS(=O)(=O)O)C(OS(=O)(=O)O)C(OC7OC(C(=O)O)=CC(OC8OC(C)C(OS(=O)(=O)O)C(O)C8OS(=O)(=O)O)C7O)C6NC(C)=O)C(OC6OC(C)C(OS(=O)(=O)O)C(O)C6OS(=O)(=O)O)C5O)C4NC(C)=O)C(OC4OC(C)C(OS(=O)(=O)O)C(O)C4OS(=O)(=O)O)C3O)C2NC(C)=O)C(O)C(=O)O)cc1 [Compound B11, L-Fuc2S4S-(α1,3)-L-ΔUA-(α1,3)-{D-GalNAc4S6S-(β1,4)-[L-Fuc2S4S-(α1,3)]-D-GlcA-(β1,3)}2-D-GalNAc4S6S-(β1,4)-[L-Fuc2S4S-(α1,3)]-D-1-deoxy-1-amino-GlcA-ol-N-4-benzoic ethyl ester]
IC50 (FIIa (Homo sapiens); [3]): > 1580 nM | Drug concentration required for multiplication of coagulation time (μg/mL) PT (human-controlled plasma [1]): # (>128 μg/mL) | IC50 (intrinsic factor Xase; [4]): 9.56 nM | Drug concentration required for multiplication of coagulation time (μg/mL) TT (plasma): # (>128 μg/mL) | Drug concentration required for multiplication of coagulation time (μg/mL) APTT (human-controlled plasma [2]): 6.3 µg/mL | IC50 (FXa (Homo sapiens); [5]): > 1580 nM
